Data taken from patent publication EP1394219A1, “PH sensitive cyanine dyes as reactive fluorescent reagents” (CARNEGIE MELLON UNIVERSITY, priority 1999, dated 2000).
Read-outs that look alike come from different tables or passages of the source.

Columns and labels:
[1] = Fluorescence and UV absorbance properties of the dyes in phosphate buffers of different pH, pKa from emission intensity ratio I/Io; conditions: for λmax pH 5.00 / λmaxpH 10.00: UV absorbance maximum; for λmax pH 5.00 / λmaxpH 10.00 / λEm(nm): phosphate buffer; for λmaxpH 10.00: pH 10.00; for λEm(nm): fluorescence emission maximum; for pKa: phosphate buffers, pH 5.85
Method: (§1) The pKa was measured as the ratio of emission intensity at the pH measured and the emission intensity for maximum emission, or I/Io. […] The pKa can be calculated to be where I/Io = 0.5 or where the fluorescent probe is 50% protonated.

[2] = phosphate buffer, pH 5.85
Method: as §1

[3] = cited from earlier work; for pKa: product literature value, may be different in a cellular environment

Row | Compound | λmax pH 5.00 [1] | λmaxpH 10.00 [1] | λEm(nm) [1] | pKa [2] | pKa [1] | solubility in DMSO [3] | pKa [3]
1 | CC1(C)C(=CC=CC2=[N+](CCCCCC(=O)O)c3ccc(S(=O)(=O)[O-])cc3C2(C)C)Nc2ccc(S(=O)(=O)O)cc21 [Compound 3.39] | 550nm | 476nm | 565nm | 7.75 | – | – | –
2 | CC1(C)C(=C/C=C/C=C/C2=[N+](CCCCS(=O)(=O)[O-])c3ccc(CC(=O)O)cc3C2(C)C)Nc2ccc(S(=O)(=O)O)cc21 [Compound 4] | 650nm | 515nm | 665nm | 6.4 | – | – | –
3 | CC[N+]1=C(/C=C/C=C/C=C2Nc3ccc(CC(=O)O)cc3C2(C)C)C(C)(C)c2cc(S(=O)(=O)[O-])ccc21 [Compound 5] | 650nm | 484nm | 665nm | 7.5 | – | – | –
4 | c1ccc2c(CN3CCOCC3)c3ccccc3c(CN3CCOCC3)c2c1 [LYSOSENSOR BLUE DND-167] | – | – | – | – | – | soluble | 5.1
5 | CN(C)Cc1c2ccccc2c(CN(C)C)c2ccccc12 [LYSOSENSOR BLUE DND-192] | – | – | – | – | – | soluble | 7.5
6 | CN(C)CCNc1ccc2c3c1cccc3c(=O)n1c3ccccc3nc21 [LYSOSENSOR GREEN DND-153] | – | – | – | – | – | soluble | 7.5
7 | O=c1c2cccc3c(NCCN4CCOCC4)ccc(c32)c2nc3ccccc3n12 [LYSOSENSOR GREEN DND-189] | – | – | – | – | – | soluble | 5.2

Further lines, with some results ahead:

Row | λmax pH 5.00 [1] | λmaxpH 10.00 [1] | λEm(nm) [1] | pKa [2] | pKa [1] | Compound | solubility in DMSO [3] | pKa [3]
8 | 552nm | 433nm | 580nm | – | 9.8 | CC1(C)/C(=C\C=C\c2sc3ccccc3[n+]2CCCCS(=O)(=O)O)Nc2ccc(CC(=O)O)cc21 [Compound 6] | – | –
9 | 640nm | 531nm | 670nm | – | 6.85 | CC1(C)\C(=C/C=C/C=C/c2sc3ccccc3[n+]2CCCCCC(=O)O)Nc2ccc(S(=O)(=O)O)cc21 [Compound 7] | – | –
10 | 650nm | 531nm | 665nm | – | 7.25 | C[N+]1=C(/C=C/C=C/C=C2/Nc3ccc(S(=O)(=O)O)cc3C2(C)C)C(C)(C)c2cc(CN)ccc21 [Compound 8] | – | –
11 | 655nm | 522nm | 680nm | 7.25 | – | CC1(C)C(/C=C/C=C/C=C2Nc3ccc4c(S(=O)(=O)O)cc(S(=O)(=O)O)cc4c3C2(C)C)=[N+](CCCCCC(=O)O)c2ccc(S(=O)(=O)[O-])cc21 [Compound 9] | – | –
12 | 653nm | 501nm | 660nm | 7.5 | – | CC1(C)C(=C/C=C/C=C/C2=[N+](CCCCCC(=O)NN)c3ccc(S(=O)(=O)[O-])cc3C2(C)C)Nc2ccc(S(=O)(=O)O)cc21 [Compound 10] | – | –
